Laboratory results: PMC10457369, “Novel VEGFR2 inhibitors with thiazoloquinoxaline scaffold targeting hepatocellular carcinoma with lower cardiotoxic impact” (Scientific Reports, 2023)
Like-named read-outs stand apart in the source and are kept apart here.

What was measured:
VEGFR-2 = target: T1, VEGFR-2 (Homo sapiens, UniProt P35968); experiment: In-vitro VEGFR-2 kinase assay (BPS Bioscience kit, Kinase-Glo MAX); format: biochemical; conditions: mean ± S.D of three experiments
T1 construct: purchased BPS Bioscience 40325
T1 sequence (P35968 20-1356): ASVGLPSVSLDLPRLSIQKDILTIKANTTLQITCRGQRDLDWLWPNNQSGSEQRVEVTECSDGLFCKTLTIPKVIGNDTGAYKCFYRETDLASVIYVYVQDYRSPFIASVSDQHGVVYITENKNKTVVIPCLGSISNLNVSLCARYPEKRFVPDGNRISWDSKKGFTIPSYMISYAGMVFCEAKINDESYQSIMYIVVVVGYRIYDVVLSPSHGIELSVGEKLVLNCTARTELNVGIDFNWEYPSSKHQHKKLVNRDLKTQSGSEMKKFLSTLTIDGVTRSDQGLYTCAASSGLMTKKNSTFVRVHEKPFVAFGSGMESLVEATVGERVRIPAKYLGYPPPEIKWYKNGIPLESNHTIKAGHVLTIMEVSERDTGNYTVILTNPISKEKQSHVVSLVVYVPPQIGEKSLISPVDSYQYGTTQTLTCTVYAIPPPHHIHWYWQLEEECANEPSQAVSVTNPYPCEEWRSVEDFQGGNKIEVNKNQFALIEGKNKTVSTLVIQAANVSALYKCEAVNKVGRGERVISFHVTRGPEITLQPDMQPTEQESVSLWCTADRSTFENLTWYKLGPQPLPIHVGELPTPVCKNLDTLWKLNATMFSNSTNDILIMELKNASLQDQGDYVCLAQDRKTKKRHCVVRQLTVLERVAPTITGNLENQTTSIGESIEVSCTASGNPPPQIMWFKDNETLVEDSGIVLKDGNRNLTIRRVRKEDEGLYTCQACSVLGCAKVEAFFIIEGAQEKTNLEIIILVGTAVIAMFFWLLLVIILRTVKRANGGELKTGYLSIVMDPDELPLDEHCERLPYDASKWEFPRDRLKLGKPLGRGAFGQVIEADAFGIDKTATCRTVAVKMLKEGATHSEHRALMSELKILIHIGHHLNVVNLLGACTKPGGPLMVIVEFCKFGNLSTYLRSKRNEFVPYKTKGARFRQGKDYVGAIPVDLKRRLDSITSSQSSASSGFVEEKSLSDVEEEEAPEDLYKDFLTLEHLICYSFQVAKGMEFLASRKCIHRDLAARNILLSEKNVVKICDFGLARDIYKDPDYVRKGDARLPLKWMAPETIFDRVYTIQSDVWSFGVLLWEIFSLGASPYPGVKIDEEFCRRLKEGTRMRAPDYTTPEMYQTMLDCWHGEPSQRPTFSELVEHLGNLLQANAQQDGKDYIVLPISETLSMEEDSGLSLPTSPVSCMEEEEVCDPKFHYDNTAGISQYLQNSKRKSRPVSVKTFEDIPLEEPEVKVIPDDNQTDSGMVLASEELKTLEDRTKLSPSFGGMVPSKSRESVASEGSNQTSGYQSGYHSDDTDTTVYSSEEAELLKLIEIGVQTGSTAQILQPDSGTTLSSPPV
Experimental: The VEGFR-2 Kinase Assay Kit [Catalog no., 40325, BPS Bioscience®, USA] is designed to measure VEGFR-2 kinase activity for screening and profiling applications using Kinase-Glo® MAX as a detection reagent. The VEGFR-2 Kinase Assay Kit comes in a convenient 96-well format, with enough purified recombinant VEGFR2 enzyme and VEGFR2 substrate. The assay protocol was carried out according to manufacturer instructions.

HepG2 cells = experiment: HepG2 cell viability, SRB assay; format: cell-based; conditions: Homo sapiens
Experimental: (§1) Hepatocellular carcinoma (HepG2) and rat heart/myocardium (H9C2) were obtained from Nawah Scientific Inc., (Mokattam, Cairo, Egypt). Cells were maintained in DMEM media supplemented with […] of streptomycin (3810–74-0), 100 units/mL of penicillin (113–98-4) and 10% of heat-inactivated fetal bovine serum in humidified, 5% (v/v) CO2 atmosphere at 37 °C.
(§2) Cell viability was assessed by SRB assay,[67]. Aliquots of 100 μL cell suspension (5 × 10^3 cells) were in 96-well plates and incubated in complete media for 24 h. […] After 72 h of drug exposure, cells were fixed by replacing media with 150 μL of 10% TCA (76–03-9) and incubated at 4 °C for 1 h. The TCA solution was removed, and the cells were washed 5 times with distilled water. Aliquots of 70 μL SRB (3520–42-1) solution (0.4% w/v) were added and incubated in a dark place at room temperature for 10 min. Plates were washed 3 times with 1% acetic acid (64–19-7) and allowed to air-dry overnight. Then, 150 μL of TRIS (77–86-1) (10 mM) was added to dissolve protein-bound SRB stain; the absorbance was measured at 540 nm using a BMG LABTECH®- FLUOstar Omegammicroplate reader (Ortenberg, Germany).

H9C2 cells = experiment: H9C2 cardiomyocyte viability, SRB assay; format: cell-based, rat; conditions: for IC50: 72 h, SRB
Experimental: as §1, §2

mice = conditions: male, Swiss albino, mouse, in vivo, po, 14 days
Experimental: For the study of the compound 4d's oral toxicity, 30 male Swiss albino mice were used. They were randomly allocated into 5 groups; the first group of mice (n = 6) received a vehicle and was used as control, while the other four groups, each received a different acute dose of compound 4d dissolved in 0.05% Tween 80 (9005–65-6) (200, 500, 800, and 1000 mg/kg p.o.). Up to 14 days after treatment, clinical toxicity symptoms (death, more than 20% weight loss, diarrhea, lethargy, tremors, and convulsions) were noted.

[1] = system: heart creatine kinase (CK); experiment: Heart creatine kinase (CK) ELISA in 8 Gy irradiated mice; format: in vivo; conditions: 50 mg/kg p.o., 3 days
Experimental: (§3) Whole body γ-irradiation of mice was performed at the NCRRT using the Gamma Cell-40 biological irradiator with a Cesium-137 irradiator unit, produced by the atomic energy of Canada limited (Sheridan science and technology park, Mississauga, Ontario, Canada). Mice were exposed to an acute dose of 8 Gy according to Yoo et al..
(§4) A total 32 mice were randomly allocated into 4 groups as follows: 1- control normal [Control] mice received vehicle (10% DMSO). 2- Irradiated mice (8 Gy) received vehicle [IRR]. […] 4- Irradiated mice treated with Compound 4d (50 mg/ kg body wt./ p.o) for 3 successive days, [IRR + cmp 4d]. After 3 days, all animals were anesthetized with ketamine (80 mg/ kg), blood samples were collected via retro-orbital plexus, and then serum samples were separated after centrifugation. Heart and liver samples were dissected and rapidly washed with cool saline then heart samples were stored at -80 °C till assay time. One lobe of liver was embedded in 10% formalin for immunohistochemistry assay.
(§5) Heart tissues of mice were weighted and minced then homogenized in cold fresh lysis buffer, the homogenate was centrifuged for 5 min at 4000 rpm, and then the supernatant was used for assay. Cardiac contents of CK, TNF-α and Caspase-9 were measured according to manufacturer instructions using CK ELISA kit [catalog no. EK730963, AFG Bioscience®, USA], TNF-α ELISA kit [catalog no. SEA626Ra, Cloud-Clone Corp®, USA] and Caspase-9 ELISA kit [catalog no. E-EL-R02054, Elabsciense®, USA], respectively.

[2] = system: serum lactate dehydrogenase (LDH); experiment: Serum LDH in 8 Gy irradiated mice; format: in vivo; conditions: 50 mg/kg p.o., 3 days
Experimental: as §3, §4
Serum LDH was estimated kinetically using Spectrum® coloring assay Kit [Egyptian company for biotechnology, SAE®, Egypt]. It was carried according to manufacturer's instructions; the values were expressed as IU/ml.

serum catalase = experiment: Serum catalase activity in 8 Gy irradiated mice; format: in vivo; conditions: 50 mg/kg p.o., 3 days
Experimental: as §3, §4
Serum catalase was assessed colorimetrically in all groups according to manufacturer instructions using coloring endpoint kit [Biodiagnostic co.®, Egypt].

cardiac TNF-α = experiment: Cardiac TNF-α ELISA in 8 Gy irradiated mice; format: in vivo; conditions: in comparison to control irradiated group, 50 mg/kg p.o., 3 days
Experimental: as §3, §4
as §5, with “SEA626Ra, Cloud-Clone Corp®, USA] and Caspase-9 ELISA kit [catalog no. E-EL-R02054, Elabsciense®, USA], respectively.” left out

cardiac caspase-9 = experiment: Cardiac caspase-9 ELISA in 8 Gy irradiated mice; format: in vivo; conditions: 50 mg/kg p.o., 3 days
Experimental: as §3, §4
as §5, with “SEA626Ra, Cloud-Clone Corp®, USA] and Caspase-9 ELISA kit [catalog no. E-EL-R02054, Elabsciense®, USA], respectively.” left out

hepatic VEGF = experiment: Immunohistochemistry expression of VEGF in liver tissue of irradiated mice; format: in vivo; conditions: 50 mg/kg p.o., 3 days, 8 Gy irradiated mice, vs irradiated animals
Experimental: as §3, §4
Immunohistochemical study was carried out on paraffin tissue sections prepared for the detection VEGF, liver tissue sections were incubated separately with anti- VEGF (Gene Tex, USA). The expression of each marker was visualized by the chromogen 3,3-diaminobenzidine tetrahydrochloridem (DAB, Sigma Chemical Co.).

[3] = 72 h, SRB, read-out: HepG2 IC50

Structure (SMILES): NS(=O)(=O)c1ccc(N=c2[nH]c3nc4ccccc4nc3s2)cc1 [Compound 4a, 4-(Thiazolo[4,5-b]quinoxalin-2(3H)-ylideneamino)benzenesulfonamide]
- IC50 (VEGFR-2): 169 ± 7.4 nM
- melting point: 165 to 167 °C

Structure (SMILES): CC(=O)NS(=O)(=O)c1ccc(N=c2[nH]c3nc4ccccc4nc3s2)cc1 [Compound 4b, N-((4-(Thiazolo[4,5-b]quinoxalin-2(3H)ylideneamino)phenyl)sulfonyl)-acetamide]
- IC50 (VEGFR-2): 132 ± 5.7 nM
- melting point: 245 to 247 °C

Structure (SMILES): N=C(N)NS(=O)(=O)c1ccc(N=c2[nH]c3nc4ccccc4nc3s2)cc1 [Compound 4c, N-Carbamimidoyl-4-(thiazolo[4,5-b]quinoxalin-2(3H)-ylideneamino) benzene-esulfonamide]
- IC50 (VEGFR-2): 254 ± 11 nM
- melting point: > 260 °C

Structure (SMILES): O=S(=O)(Nc1ccccn1)c1ccc(N=c2[nH]c3nc4ccccc4nc3s2)cc1 [Compound 4d, N-(pyridin-2-yl)-4-(thiazolo[4,5-b]quinoxalin-2(3H)-ylideneamino) benzene-sulfonamide]
- IC50 (VEGFR-2): 61 ± 2.6 nM
- viability at 0.01 µM (HepG2 cells; 72 h, SRB): 98.55 ± 0.47%
- viability at 0.1 µM (HepG2 cells; 72 h, SRB): 98.32 ± 0.97%
- viability at 1 µM (HepG2 cells; 72 h, SRB): 98.1 ± 1.8%
- viability at 10 µM (HepG2 cells; 72 h, SRB): 6.62 ± 0.5%
- viability at 100 µM (HepG2 cells; 72 h, SRB): 3.81 ± 0.24%
- IC50 (HepG2 cells; [3]): 4310 nM
- IC50 (HepG2 cells; read-out: suppressing potency on HepG2 cells proliferation): 4310 nM
- times less cytotoxic than sorafenib (H9C2 cells; H9C2 cardiomyocytes): 2.93 times
- high level of safety up to (mice): up to 1000 mg/kg
- CK activity compared to normal values [1]: not significantly different from normal values
- CK level compared to IRR non-treated group [1]: did not significantly lower CK level
- serum LDH compared to normal values [2]: non-significant deviation from normal LDH values
- decrease in serum LDH ([2]; compared to sorafenib treated group): 40.83%
- serum catalase activity (serum catalase): normal catalase activity
- reduction in cardiac TNF-α (cardiac TNF-α): 35.75%
- decrease in Caspase-9 (cardiac caspase-9; compared to control irradiated animals): 20.63%
- expression of VEGF in liver tissue (hepatic VEGF): promisingly suppressed

Structure (SMILES): O=S(=O)(Nc1ncccn1)c1ccc(N=c2[nH]c3nc4ccccc4nc3s2)cc1 [Compound 4e, N-(Pyrimidin-2-yl)-4-(thiazolo[4,5-b]quinoxalin-2(3H)-ylideneamino) benzene-sulfonamide]
- IC50 (VEGFR-2): 112 ± 4.8 nM
- melting point: 223 to 225 °C

Structure (SMILES): Cc1cc(NS(=O)(=O)c2ccc(N=c3[nH]c4nc5ccccc5nc4s3)cc2)no1 [Compound 4f, N-(5-Methylisoxazol-3-yl)-4-(thiazolo[4,5-b]quinoxalin-2(3H)-ylideneamino) benzene-sulfonamide]
- IC50 (VEGFR-2): 83.3 ± 3.7 nM
- viability at 0.01 µM (HepG2 cells; 72 h, SRB): 97.6 ± 1.26%
- viability at 0.1 µM (HepG2 cells; 72 h, SRB): 97.1 ± 1.06%
- viability at 1 µM (HepG2 cells; 72 h, SRB): 96.6 ± 1.2%
- viability at 10 µM (HepG2 cells; 72 h, SRB): 95.5 ± 3%
- viability at 100 µM (HepG2 cells; 72 h, SRB): 94 ± 2.03%
- IC50 (HepG2 cells; [3]): > 100000 nM
- melting point: 186 to 188 °C

Structure (SMILES): O=S(=O)(Nc1nccs1)c1ccc(N=c2[nH]c3nc4ccccc4nc3s2)cc1 [Compound 4g, N-(Thiazol-2-yl)-4-(thiazolo[4,5-b]quinoxalin-2(3H)-ylideneamino) benzene-sulfonamide]
- IC50 (VEGFR-2): 99.8 ± 4.3 nM
- melting point: 238 to 240 °C

Structure (SMILES): Cc1ccnc(NS(=O)(=O)c2ccc(N=c3[nH]c4nc5ccccc5nc4s3)cc2)n1 [Compound 4h, N-(4-Methylpyrimidin-2-yl)-4-(thiazolo[4,5-b]quinoxalin-2(3H)-ylideneamino)-benzenesulfonamide]
- IC50 (VEGFR-2): 217 ± 9.4 nM
- melting point: 199 to 201 °C

Structure (SMILES): Cc1cc(C)nc(NS(=O)(=O)c2ccc(N=c3[nH]c4nc5ccccc5nc4s3)cc2)n1 [Compound 4i, N-(4,6-Dimethylpyrimidin-2-yl)-4-(thiazolo[4,5-b]quinoxalin-2(3H)-ylideneamino) benzenesulfonamide]
- IC50 (VEGFR-2): 288 ± 13 nM
- melting point: 246 to 248 °C

Structure (SMILES): COc1cc(NS(=O)(=O)c2ccc(N=c3[nH]c4nc5ccccc5nc4s3)cc2)nc(OC)n1 [Compound 4j, N-(2,6-Dimethoxypyrimidin-4-yl)-4-(thiazolo[4,5-b]quinoxalin-2(3H)-ylidene-amino)-benzenesulfonamide]
- IC50 (VEGFR-2): 368 ± 16 nM
- melting point: 249 to 251 °C

Structure (SMILES): CNC(=O)c1cc(Oc2ccc(NC(=O)Nc3ccc(Cl)c(C(F)(F)F)c3)cc2)ccn1 [Sorafenib, reference compound]
- viability at 0.01 µM (HepG2 cells; 72 h, SRB): 99.58 ± 0.94%
- viability at 0.1 µM (HepG2 cells; 72 h, SRB): 98.2 ± 3.19%
- viability at 1 µM (HepG2 cells; 72 h, SRB): 87.1 ± 2.02%
- viability at 10 µM (HepG2 cells; 72 h, SRB): 11.3 ± 0.31%
- viability at 100 µM (HepG2 cells; 72 h, SRB): 4.05 ± 0.1%
- IC50 (HepG2 cells; [3]): 2970 nM
- IC50 (H9C2 cells): 33500 nM
- IC50 (H9C2 cells; listed as sorafenib): 98100 nM
- increment in CK enzymatic activity ([1]; vs normal): 35.88%
- increase in serum LDH ([2]; vs normal): 106.06%
- decrease in serum catalase activity (serum catalase; vs normal): 6.19%
- reduction in cardiac TNF-α (cardiac TNF-α): 31.87%
- increase in cardiac caspase-9 levels (cardiac caspase-9; over normal values): 29.83%
- expression of VEGF in liver tissue (hepatic VEGF): promisingly suppressed
